Among the data in patent US20110059940A1, “2-Aryl Glycinamide Derivatives” (Bristol- Myers Squibb Company, priority 2008, published 2011) are IC50 values, retold here.

Usually IC50 stands for the midpoint of a concentration-inhibition curve.

Read-outs that look alike come from different tables or passages of the source.

For the experiment, the system named is β-amyloid peptide formation in human H4 cells. The experiment in a line: Inhibition of β-amyloid peptide (Aβ) formation in H4 cells overexpressing HPLAP-APP fusion protein. Type of experiment: cell-based. The method, then:
γ-Secretase inhibitors were also evaluated using in vitro assays based on the inhibition of Aβ formation in cultured cells. Cultured human cell lines, such as HEK293 and H4 cells, which express APP and γ-secretase activity or transfected derivative cell lines that overexpress wild-type APP, mutant APP, or APP fusion proteins will secrete Aβ peptides into the culture media that can be quantified as previously outlined (Dovey, H. et al., J. Neurochem. 2001, 76, 173). The incubation of these cultured cells with γ-secretase inhibitors decreases the production of Aβ peptides. For instance, H4 cells stably transfected to overexpress the HPLAP-APP fusion protein described above were grown as above, detached, and adjusted to 2×10^5 cells/ml. 100 μl of the resulting suspension was then added to each well of a 96-well plate. After 4 hrs, the media was removed and replaced with 100 μl serum-free media containing various dilutions of the test compound. Plates were then incubated for 18 hrs at 37° C. and a 100 μl aliquot of the tissue culture supernatant was removed for determination of Aβ levels using time-resolved fluorescence of the homogenous sample as outlined above. The extent of Aβ inhibition was used to calculate the IC50 value for the test compound.
Representative compounds were evaluated in the above assay and were determined to inhibit Aβ formation.

Where [1] appears, read: class symbol, read-out: Binding affinity (IC50 in nM), activity class.
[2] abbreviates: number in parentheses, read-out: Binding affinity (IC50 in nM).

Turning to `CC(C)(C)OC(=O)c1ccc(CN(C(C(N)=O)c2cc(F)cc(F)c2)S(=O)(=O)c2ccc(Cl)cc2)cc1` (stereo not drawn) [Example 1, α-[(4-Chlorobenzenesulfonyl)((4-t-butyloxycarbonylphenyl)methyl)amino]-3,5-difluorobenzeneacetamide], the IC50 under setting [1] fell in the range of 0.25 to 50 nM.
On to `NC(=O)C(c1cc(F)cc(F)c1)N(Cc1ccc(C(=O)O)cc1)S(=O)(=O)c1ccc(Cl)cc1` (stereo not drawn) [Example 2, α-[(4-Chlorobenzenesulfonyl)((4-carboxyphenyl)methyl)amino]-3,5-difluorobenzene-acetamide], for which the IC50 under setting [1] lay in the range of 50 to 500 nM and the IC50 under setting [2] came out at 116 nM.
Take `CCNC(=O)c1ccc(CN(C(C(N)=O)c2cc(F)cc(F)c2)S(=O)(=O)c2ccc(Cl)cc2)cc1` (stereo not drawn) [Example 3, α-[(4-Chlorobenzenesulfonyl)((4-ethylaminocarbonylphenyl)methyl)amino]-3,5-difluorobenzeneacetamide]: the IC50 is, setting by setting: under setting [1], 0.25 to 50 nM; under setting [2], 1.28 nM.
For the compound `CC(C)(C)NC(=O)c1ccc(CN(C(C(N)=O)c2cc(F)cc(F)c2)S(=O)(=O)c2ccc(Cl)cc2)cc1` (stereo not drawn) [Example 4, α-[(4-Chlorobenzenesulfonyl)(4-t-butylaminocarbonylphenylmethyl)amino]-3,5-difluorobenzeneacetamide], the IC50 under setting [1] lay within 0.25 to 50 nM.
On the same count and under the same terms, the value for `NC(=O)C(c1cc(F)cc(F)c1)N(Cc1ccc(C(=O)N2CCC2)cc1)S(=O)(=O)c1ccc(Cl)cc1` (stereo not drawn) [Example 5, α-[(4-Chlorobenzenesulfonyl)(4-azetidinylcarbonylphenylmethyl)amino]-3,5-difluorobenzene-acetamide] was 0.25 to 50 nM; that for `CNC(=O)c1ccc(CN(C(C(N)=O)c2cc(F)cc(F)c2)S(=O)(=O)c2ccc(Cl)cc2)cc1` (stereo not drawn) [Example 6, α-[(4-Chlorobenzenesulfonyl)(4-methylaminocarbonylphenylmethyl)amino]-3,5-difluorobenzene-acetamide] was 0.25 to 50 nM.
In the case of `NC(=O)C(c1cc(F)cc(F)c1)N(Cc1ccc(C(=O)NC2CCC2)cc1)S(=O)(=O)c1ccc(Cl)cc1` (stereo not drawn) [Example 8], the IC50 runs as follows: under setting [1], 0.25 to 50 nM; under setting [2], 0.93 nM.
Turning to `CCN1CCc2cc(CN(C(C(N)=O)c3cc(F)cc(F)c3)S(=O)(=O)c3ccc(Cl)cc3)ccc2C1=O` (stereo not drawn) [Example 9, α-[(4-Chlorobenzenesulfonyl)(1-oxo-2-ethyl-1,2,3,4-tetrahydroisoquinolin-6-ylmethyl)amino]-3,5-difluorobenzeneacetamide], the IC50 under setting [1] fell in the range of 0.25 to 50 nM.
Take `NC(=O)C(c1cc(F)cc(F)c1)N(Cc1ccc(-n2cncn2)cc1)S(=O)(=O)c1ccc(Cl)cc1` (stereo not drawn) [Example 11, α-[(4-Chlorobenzenesulfonyl)(4-(1,2,4-triazolyl)-phenylmethyl)amino]-3,5-difluorobenzene-acetamide]: under setting [1], the IC50 was in the range of 0.25 to 50 nM.
Take `NC(=O)C(c1cc(F)cc(F)c1)N(Cc1ccc(-n2cccn2)cc1)S(=O)(=O)c1ccc(Cl)cc1` (stereo not drawn) [Example 12, α-[(4-Chlorobenzenesulfonyl)(4-pyrazolylphenylmethyl)amino]-3,5-difluorobenzene-acetamide]: the IC50 under setting [1] lay in the range of 0.25 to 50 nM and the IC50 under setting [2] came to 9.15 nM.
In the case of `NC(=O)C(c1cc(F)cc(F)c1)N(Cc1ccc(F)cc1)S(=O)(=O)c1ccc(Cl)cc1` (stereo not drawn) [Example 14, α-[(4-Chlorobenzenesulfonyl)(4-fluorophenylmethyl)amino]-3,5-difluorobenzene-acetamide], the IC50 under setting [1] is 0.25 to 50 nM.
`N#Cc1ccc(CN(C(C(N)=O)c2cc(F)cc(F)c2)S(=O)(=O)c2ccc(Cl)cc2)cc1` (stereo not drawn) [Example 16, α-[(4-Chlorobenzenesulfonyl)(4-cyanophenylmethyl)amino]-3,5-difluorobenzene-acetamide]: the IC50 under setting [1] was in the range of 0.25 to 50 nM and the IC50 under setting [2] turned out to be 12.4 nM.
Regarding `Cc1nc(-c2ccc(CN(C(C(N)=O)c3cc(F)cc(F)c3)S(=O)(=O)c3ccc(Cl)cc3)cc2)no1` (stereo not drawn) [Example 18], the IC50 under setting [1] lay within 0.25 to 50 nM.
The same measure, in the same setting: the value for `NC(=O)C(c1cc(F)cc(F)c1)N(Cc1ccc(-c2ncon2)cc1)S(=O)(=O)c1ccc(Cl)cc1` (stereo not drawn) [Example 19] was 0.25 to 50 nM.
`CCNC(=O)c1ccc(CN(C(C(N)=O)c2ccccc2C)S(=O)(=O)c2ccc(Cl)cc2)cc1` (stereo not drawn) [Example 31, α-[(4-Chlorobenzenesulfonyl)((4-ethylaminocarbonylphenyl)methyl)amino]-2-methylbenzene-acetamide]: the IC50 reads like this: under setting [1], 50 to 500 nM; under setting [2], 127 nM.
